The values below come from patent US20080021217A1, “HETEROCYCLIC INHIBITORS OF RHO KINASE” (priority 2006, published 2008).

Each structure is given as a SMILES string.

Assay [1] concerns the target T1, recombinant N-terminal GST-tagged human Rho kinase 1 (ROCK1, amino acids 1-535) (Homo sapiens, UniProt Q13464).
T1 construct: ROCK1, amino acids 1-535, Invitrogen Inc., cat. #PV-3691; GST (N); purchased Invitrogen Inc. PV-3691
The assay can be described thus: In vitro Rho kinase assay (luciferase-based ATP consumption), ROCK1. The class given is biochemical. As for the experimental part: (§1) Rho kinase biochemical assays described below depend on firefly luciferase-based, indirect measurement of total ATP consumption by the kinase following incubation with substrate and ATP. 25 μl of Rho kinase assay buffer (20 mM Tris-HCL [pH 7.5], 1 mM MgCl2, 0.4 mM CaCl2, 0.15 mM EGTA, 0.1 mg/ml bovine serum albumin) containing 0.82 μg/ml of recombinant N-terminal GST-tagged human Rho kinase 1 (ROCK1, amino acids 1-535, Invitrogen Inc., cat. #PV-3691) or recombinant N-terminal GST-tagged human Rho kinase 2 (ROCK2, amino acids 1-552, Invitrogen Inc., cat #PV3759), 100 μg/ml S6 peptide substrate (related to amino acids 218-249 of the human 40S ribosomal protein S6, and suitable for ROCK1 or ROCK2, e.g. Upstate/Millipore Inc., cat #12-420), and 3 µM ATP are dispensed to wells of a 384 multi-well opaque plate. The plate is centrifuged for 30 seconds at approximately 200×g. 240 nl of test compound in DMSO is dispensed to each well by passive pin transfer. The lag phase of this in vitro kinase reaction permits addition of compounds soon after the reaction initiates. The reaction is allowed to incubate at 30° C. for 2 hours. The assay plates are sealed and maintained in a humidified environment. After 2 hours, 25 μl of easyLite protein kinase assay reagent (Perkin-Elmer, Inc.) is dispensed. After an additional 10 minute incubation at room temperature (about 22° C.), luminescence activity is measured on a Molecular Devices Analyst multi-mode plate reader or other suitable plate reader. Kinase inhibition results in less ATP consumption, and therefore increased luminescence signal. Negative control activity is measured with DMSO lacking any test compound. The positive control is 2-methyl-1-(4-methylisoquinolin-5-ylsulfonyl)perhydro-1,4-diazepine hydrochloride (aka H-1152P, HCl salt). Efficacy is measured as a percentage of positive control activity. […] In some cases, kinase reactions and compound testing are performed in 1536 multi-well plates under similar conditions, with assay volumes appropriately scaled. The designated NT means the cited example was not tested.

In assay [2] the target is T2, recombinant N-terminal GST-tagged human Rho kinase 2 (ROCK2, amino acids 1-552) (Homo sapiens, UniProt O75116).
T2 construct: ROCK2, amino acids 1-552, Invitrogen Inc., cat #PV3759; GST (N); purchased Invitrogen Inc. PV3759
Put plainly: In vitro Rho kinase assay (luciferase-based ATP consumption), ROCK2. In kind it is biochemical. On the procedure: as §1

T2 sequence (O75116 1-552): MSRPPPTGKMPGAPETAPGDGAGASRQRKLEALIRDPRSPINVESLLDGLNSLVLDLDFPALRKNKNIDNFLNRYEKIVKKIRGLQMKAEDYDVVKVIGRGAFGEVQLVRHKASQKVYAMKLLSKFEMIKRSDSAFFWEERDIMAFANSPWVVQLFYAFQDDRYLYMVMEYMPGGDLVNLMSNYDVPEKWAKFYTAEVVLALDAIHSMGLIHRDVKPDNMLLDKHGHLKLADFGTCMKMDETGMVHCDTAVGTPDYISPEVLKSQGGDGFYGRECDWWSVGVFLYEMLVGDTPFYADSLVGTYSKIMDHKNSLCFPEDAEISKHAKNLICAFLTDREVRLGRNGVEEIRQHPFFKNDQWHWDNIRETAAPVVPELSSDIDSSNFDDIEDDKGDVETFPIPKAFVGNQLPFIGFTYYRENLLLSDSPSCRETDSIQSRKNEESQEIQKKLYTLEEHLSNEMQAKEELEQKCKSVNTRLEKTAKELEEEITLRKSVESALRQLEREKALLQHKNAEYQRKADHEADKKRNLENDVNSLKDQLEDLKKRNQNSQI
T1 sequence (Q13464 1-535): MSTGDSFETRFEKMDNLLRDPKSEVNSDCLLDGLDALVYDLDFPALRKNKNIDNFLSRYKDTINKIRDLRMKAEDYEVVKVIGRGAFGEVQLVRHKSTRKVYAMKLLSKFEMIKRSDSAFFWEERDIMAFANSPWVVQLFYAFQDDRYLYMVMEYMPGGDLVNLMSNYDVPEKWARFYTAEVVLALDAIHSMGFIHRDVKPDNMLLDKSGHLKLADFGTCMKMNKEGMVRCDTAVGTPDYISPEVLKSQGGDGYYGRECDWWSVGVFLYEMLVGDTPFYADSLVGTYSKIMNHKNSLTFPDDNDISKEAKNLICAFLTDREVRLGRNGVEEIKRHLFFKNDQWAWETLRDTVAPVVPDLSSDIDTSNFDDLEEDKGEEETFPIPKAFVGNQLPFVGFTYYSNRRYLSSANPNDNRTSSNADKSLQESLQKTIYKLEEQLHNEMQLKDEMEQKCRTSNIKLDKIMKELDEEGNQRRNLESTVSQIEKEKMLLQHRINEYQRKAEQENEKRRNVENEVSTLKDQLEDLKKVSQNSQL

The IC50 is the concentration at which inhibition is half-maximal. In the case of `CS(=O)(=O)Nc1ccc(C(=O)NCc2nc(-c3ccncc3)n[nH]2)cc1` [Example 44, 4-(Methylsulfonamido)-N-((3-(pyridin-4-yl)-1H-1,2,4-triazol-5-yl)methyl)benzamide], the IC50 in assay [1] and in assay [2] was > 5 µM in each case.

Regarding `CC(NC(=O)c1ccc(O)cc1O)c1nc(-c2ccncc2)n[nH]1` (stereo not drawn) [Example 66, 2,4-Dihydroxy-N-(1-(3-(pyridin-4-yl)-1H-1,2,4-triazol-5-yl)ethyl)benzamide], the IC50 in assay [1] and in assay [2] was < 5 µM throughout.

Turning to `CC(C)(C)OC(=O)NCC[C@H](NC(=O)c1ccc(O)cc1O)c1nc(-c2ccncc2)n[nH]1` [Example 77, (S)-tert-Butyl 3-(2,4-dihydroxybenzamido)-3-(3-(pyridin-4-yl)-1H-1,2,4-triazol-5-yl)propylcarbamate], the concentration for half-maximal inhibition (IC50) in assay [1] and in assay [2] was < 5 µM each time.

On to `O=C(NCc1nc(-c2ccncc2)n[nH]1)c1cccc(Cl)c1O` [Example 26, 3-chloro-2-hydroxy-N-((3-(pyridin-4-yl)-1H-1,2,4-triazol-5-yl)methyl)benzamide], for which the 50% inhibitory concentration (IC50) in assay [1] and in assay [2] was < 5 µM each time.

Consider `O=C(NCc1nc(-c2c[nH]c3ncccc23)n[nH]1)c1ccc(O)cc1O` [Example 69], for which the half-maximal inhibitory concentration (IC50) in assay [1] and in assay [2] was < 5 µM in each case.

Consider `Cc1cc(C(=O)NCc2nc(-c3ccncc3)n[nH]2)ccc1O` [Example 45, 4-Hydroxy-3-methyl-N-((3-(pyridin-4-yl)-1H-1,2,4-triazol-5-yl)methyl)benzamide], for which the concentration for half-maximal inhibition (IC50) in assay [1] and in assay [2] was < 5 µM throughout.

Take `O=C(NCc1nc(-c2ccncc2)n[nH]1)c1ccccc1O` [Example 25, 2-hydroxy-N-((3-(pyridin-4-yl)-1H-1,2,4-triazol-5-yl)methyl)benzamide]: the IC50 in assay [1] and in assay [2] was < 5 µM each time.

Consider `O=C(NCc1nc(-c2ccncc2)c[nH]1)c1cccs1` [Example 5, N-((4-(pyridin-4-yl)-1H-imidazol-2-yl)methyl)thiophene-2-carboxamide], for which the IC50 in assay [1] and in assay [2] was < 5 µM in each case.

In the case of `Cc1ccsc1C(=O)NCc1nc(-c2ccncc2)n[nH]1` [Example 47, 3-Methyl-N-((3-(pyridin-4-yl)-1H-1,2,4-triazol-5-yl)methyl)thiophene-2-carboxamide], the IC50 in assay [1] and in assay [2] was < 5 µM throughout.

With `CS(=O)(=O)Nc1cccc(C(=O)NCc2nc(-c3c[nH]c4ncccc34)cs2)c1` [Example 73, N-((4-(1H-pyrrolo[2,3-b]pyridin-3-yl)thiazol-2-yl)methyl)-3-(methylsulfonamido)benzamide], the IC50 in assay [1] and in assay [2] was < 5 µM throughout.

Turning to `COc1ccc(C(=O)NCc2nc(-c3ccncc3)no2)cc1` [Example 4, 4-methoxy-N-((3-(pyridin-4-yl)-1,2,4-oxadiazol-5-yl)methyl)benzamide], the IC50 in assay [1] and in assay [2] was > 5 µM each time.

Turning to `O=C(O)c1ccc(C(=O)NCc2nc(-c3ccncc3)n[nH]2)cc1` [Example 31, 4-((3-(Pyridin-4-yl)-1H-1,2,4-triazol-5-yl)methylcarbamoyl)benzoic acid], the IC50 is > 5 µM in assay [1] and < 5 µM in assay [2].

For `CN(Cc1nc(-c2ccncc2)n[nH]1)C(=O)c1ccc(O)cc1O` [Example 58, 2,4-Dihydroxy-N-methyl-N-((3-(pyridin-4-yl)-1H-1,2,4-triazol-5-yl)methyl)benzamide], the 50% inhibitory concentration (IC50) in assay [1] and in assay [2] was > 5 µM each time.

Take `O=C(CCc1nc(-c2ccncc2)n[nH]1)c1ccc(O)cc1` [Example 63, 1-(4-hydroxyphenyl)-3-(3-(pyridin-4-yl)-1H-1,2,4-triazol-5-yl)propan-1-one]: the IC50 in assay [1] and in assay [2] was < 5 µM throughout.

As to `CC(C)(C)OC(=O)NC1CCN(C(=O)Cc2nc(-c3ccncc3)n[nH]2)C1` (stereo not drawn) [Example 60, tert-Butyl 1-(2-(3-(pyridin-4-yl)-1H-1,2,4-triazol-5-yl)acetyl)pyrrolidin-3-ylcarbamate], in assay [2], the IC50 is > 5 µM.

On to `COc1cccc(O)c1C(=O)NCc1nc(-c2ccncc2)n[nH]1` [Example 23, 2-hydroxy-6-methoxy-N-((3-(pyridin-4-yl)-1H-1,2,4-triazol-5-yl)methyl)benzamide], for which the half-inhibitory concentration (IC50) in assay [1] and in assay [2] was < 5 µM throughout.

For the compound `NC1CCN(C(=O)Cc2nc(-c3ccncc3)n[nH]2)C1` (stereo not drawn) [Example 61, 1-(3-Aminopyrrolidin-1-yl)-2-(3-(pyridin-4-yl)-1H-1,2,4-triazol-5-yl)ethanone], in assay [2], the 50% inhibitory concentration (IC50) is > 5 µM.

For `O=C(c1cccs1)N1CCn2nc(-c3ccncc3)nc2C1` [Example 62, (2-(Pyridin-4-yl)-5,6-dihydro-[1,2,4]triazolo[1,5-a]pyrazin-7(8H)-yl)(thiophen-2-yl)methanone], the half-inhibitory concentration (IC50) in assay [1] and in assay [2] was > 5 µM each time.

For `Oc1ccc(C(O)CCc2nc(-c3ccncc3)n[nH]2)cc1` (stereo not drawn) [Example 64, 4-(1-hydroxy-3-(3-(pyridin-4-yl)-1H-1,2,4-triazol-5-yl)propyl)phenol], the IC50 in assay [1] and in assay [2] was > 5 µM throughout.

For `O=C(NCc1c[nH]c(-c2ccncc2)n1)c1cccs1` [Example 14], the half-maximal inhibitory concentration (IC50) in assay [1] and in assay [2] was > 5 µM throughout.

As for `CN(Cc1nc(-c2ccncc2)n[nH]1)C(=O)c1cccs1` [Example 57, N-Methyl-N-((3-(pyridin-4-yl)-1H-1,2,4-triazol-5-yl)methyl)thiophene-2-carboxamide], the IC50 in assay [1] and in assay [2] was > 5 µM in each case.

In the case of `COc1ccc(C(=O)NCc2nc(-c3ccncc3)n[nH]2)c(O)c1` [Example 24, 2-hydroxy-4-methoxy-N-((3-(pyridin-4-yl)-1H-1,2,4-triazol-5-yl)methyl)benzamide], the IC50 in assay [1] and in assay [2] was < 5 µM in each case.

For `O=C(NCc1nc(-c2ccncc2)n[nH]1)c1ccsc1` [Example 17, N-((3-(pyridin-4-yl)-1H-1,2,4-triazol-5-yl)methyl)thiophene-3-carboxamide], the IC50 in assay [1] and in assay [2] was < 5 µM each time.

For `O=C(NCc1nc(-c2ccncc2)no1)c1cccs1` [Example 2, N-((3-(pyridin-4-yl)-1,2,4-oxadiazol-5-yl)methyl)thiophene-2-carboxamide], the IC50 in assay [1] and in assay [2] was > 5 µM throughout.

Take `Cc1ccc(C(=O)NCc2nc(-c3ccncc3)n[nH]2)c(O)c1` [Example 27, 2-hydroxy-4-methyl-N-((3-(pyridin-4-yl)-1H-1,2,4-triazol-5-yl)methyl) benzamide]: the IC50 in assay [1] and in assay [2] was < 5 µM in each case.

In the case of `O=C(NCc1nc(-c2ccncc2)n[nH]1)c1n[nH]c2ccccc12` [Example 33, N-((3-(Pyridin-4-yl)-1H-1,2,4-triazol-5-yl)methyl)-1H-indazole-3-carboxamide], the results for the IC50 in assay [1] and in assay [2] were > 5 µM and < 5 µM, respectively.

In the case of `Cc1ccc(C(=O)NCc2nc(-c3ccncc3)n[nH]2)s1` [Example 49, 5-Methyl-N-((3-(pyridin-4-yl)-1H-1,2,4-triazol-5-yl)methyl)thiophene-2-carboxamide], the half-maximal inhibitory concentration (IC50) in assay [1] and in assay [2] was < 5 µM in each case.

In the case of `COc1cccc(C(=O)NCc2nc(-c3ccncc3)n[nH]2)c1` [Example 18, 3-methoxy-N-((3-(pyridin-4-yl)-1H-1,2,4-triazol-5-yl)methyl)benzamide], the IC50 in assay [1] and in assay [2] was > 5 µM throughout.

As to `O=C(NCc1nc(-c2ccncc2)n[nH]1)c1ccc(O)cc1` [Example 28, 4-hydroxy-N-((3-(pyridin-4-yl)-1H-1,2,4-triazol-5-yl)methyl)benzamide], the half-inhibitory concentration (IC50) in assay [1] and in assay [2] was < 5 µM throughout.

Turning to `CS(=O)(=O)Nc1ccccc1C(=O)NCc1nc(-c2ccncc2)n[nH]1` [Example 29, 2-(Methylsulfonamido)-N-((3-(pyridin-4-yl)-1H-1,2,4-triazol-5-yl)methyl)benzamide], the IC50 in assay [1] and in assay [2] was > 5 µM each time.

For the compound `O=C(Nc1cccc2c(-c3ccncc3)n[nH]c12)c1cccs1` [Example 68, N-(3-(Pyridin-4-yl)-1H-indazol-7-yl)thiophene-2-carboxamide], the IC50 in assay [2] was > 5 µM.

`COc1ccc(NC(=O)NCc2nc(-c3ccncc3)n[nH]2)c(OC)c1` [Example 34, 1-(2,4-Dimethoxyphenyl)-3-((3-(pyridin-4-yl)-1H-1,2,4-triazol-5-yl)methyl)urea]: the IC50 in assay [2] is > 5 µM.
